Data on ten molecules can be found in patent EP1484330B1, “Triazole compouds suitable for treating disorders that respond to modulation of the dopamine D3 receptor” (Abbott GmbH & Co. KG, priority 2003, dated 2004).

Series [1] is described as follows: Determination of the concentration of compounds in plasma and brain following oral dosing. The series is classed as in vivo, Male Sprague-Dawley rats. The settings on record: rats, 10 mg/kg orally by gavage; samples at 0.5, 3 and 8 hours; value Cmax. As to the method:
Male Sprague-Dawley rats were used in this study (2 to 4 per experiment). The animals were fasted overnight prior to dosing and throughout the duration of the study but were permitted water ad libitum. Each rat received a 10 mg/kg (5 mL/kg) dose orally by gavage. At 0.5, 3 and 8 hours after drug administration, three animals were put under deep anesthesia using isoflurane and euthanized by bleeding (cardiac puncture) under deep isoflurane anesthesia. EDTA blood samples and brain tissue will be collected from each rat. Upon collection, the samples were promptly placed in an ice bath, and within 2 hours after sample collection, the blood was centrifuged at about 4°C. The resulting brain and plasma samples were placed in clean glass tubes and stored in a freezer until analysis. The plasma samples were assayed for parent compound using appropriate liquid chromatography - mass spectrometry procedures. The results are given in table 2 along with results obtained using the two reference compounds A and B, and illustrate the high brain concentrations attainable with the compounds of the invention.

Series [2] has as its target T1, human dopamine D3 receptors (Homo sapiens, UniProt P35462).
T1 construct: expressed in transfected cells; membranes used
Description: Receptor binding study, displacement of [125I]-iodosulpride from HEK-293 cell membranes. The settings on record: for Ki: 0.1 nM [125I]-iodosulpride, HEK-293 membranes, 25°C, 60 minutes; for Selectivity [Ki(D2)/Ki(D3)]: ratio Ki(D2)/Ki(D3). On the procedure:
(§1) The substance to be tested was either dissolved in methanol/Chremophor® (BASF-AG) or in dimethyl sulfoxide and then diluted with water to the desired concentration.
(§2) Each assay mixture was run in triplicate.
The incubation buffer contained 50 mM tris, 120 mM NaCl, 5 mM KCI, 2 mM CaCl2, 2 mM MgCl2 and 0.1% bovine serum albumin, 10 µM quinolone and 0.1% ascorbic acid (prepared fresh daily). The buffer was adjusted to pH 7.4 with HCl.
(§3) After having been incubated at 25°C for 60 minutes, the assay mixtures were filtered through a Wathman GF/B glass fiber filter under vacuum using a cell collecting device. The filters were transferred to scintillation viols using a filter transfer system. After 4 ml of Ultima Gold® (Packard) have been added, the samples were shaken for one hour and the radioactivity was then counted in a Beta-Counter (Packard, Tricarb 2000 or 2200CA). The cpm values were converted into dpm using a standard quench series and the program belonging to the instrument.
(§4) The inhibition curves were analyzed by means of iterative nonlinear regression analysis using the Statistical Analysis System (SAS) which is similar to the "LIGAND" program described by Munson and Rodbard.

Series [3] deals with T2, human dopamine D2L receptors (long isoform) (Homo sapiens, UniProt P14416).
T2 construct: expressed in transfected cells; membranes used
Description: Receptor binding study, displacement of [125I] iodospiperone from HEK-293 cell membranes. To be noted: 0.01 nM [125I] iodospiperone, HEK-293 membranes, 25°C, 60 minutes, read-out: Ki D2. As to the method:
as §1, §2
The incubation buffer contained 50 mM tris, 120 mM NaCl, 5 mM KCl, 2 mM CaCl2, 2 mM MgCl2 and 0.1% bovine serum albumin. The buffer was adjusted to pH 7.4 with HCl.
as §3, §4

T1 sequence (P35462 whole entry): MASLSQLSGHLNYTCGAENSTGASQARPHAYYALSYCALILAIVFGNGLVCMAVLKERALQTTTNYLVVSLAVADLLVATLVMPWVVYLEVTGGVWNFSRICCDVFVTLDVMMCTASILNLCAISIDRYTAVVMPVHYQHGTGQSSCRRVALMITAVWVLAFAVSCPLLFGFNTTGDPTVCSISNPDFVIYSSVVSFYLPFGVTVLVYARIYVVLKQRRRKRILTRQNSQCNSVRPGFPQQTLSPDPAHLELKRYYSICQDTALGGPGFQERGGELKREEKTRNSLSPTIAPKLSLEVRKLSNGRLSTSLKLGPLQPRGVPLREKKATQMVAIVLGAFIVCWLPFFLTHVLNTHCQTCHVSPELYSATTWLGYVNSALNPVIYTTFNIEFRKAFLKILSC
T2 sequence (P14416 whole entry, canonical isoform): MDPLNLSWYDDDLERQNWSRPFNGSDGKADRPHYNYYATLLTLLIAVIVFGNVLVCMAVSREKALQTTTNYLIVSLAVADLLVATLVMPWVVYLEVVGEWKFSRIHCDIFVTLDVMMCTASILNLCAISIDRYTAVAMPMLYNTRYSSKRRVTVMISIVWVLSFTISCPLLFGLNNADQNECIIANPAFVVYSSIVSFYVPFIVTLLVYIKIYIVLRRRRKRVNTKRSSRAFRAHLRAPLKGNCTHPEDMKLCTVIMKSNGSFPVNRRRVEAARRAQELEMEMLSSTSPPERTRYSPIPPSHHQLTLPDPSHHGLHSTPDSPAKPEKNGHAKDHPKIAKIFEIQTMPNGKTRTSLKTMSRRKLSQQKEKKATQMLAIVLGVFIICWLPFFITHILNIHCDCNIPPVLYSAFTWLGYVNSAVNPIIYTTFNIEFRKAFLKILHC

`Cn1c(N)nnc1SCCCN1CCN(c2cc(C(C)(C)C)nc(C(C)(C)C)n2)CC1` [A*, reference compound]: the Brain level in series [1] is given as 387 ng/g.

Consider `Cn1c(N)nnc1SCCCN1CCN(c2cc(C(F)(F)F)nc(C(C)(C)C)n2)CC1` [B*, reference compound], for which the Brain level in series [1] amounted to 143 ng/g.

For `Cc1nnc(SCCCN2CCN(c3cc(C(C)(C)C)nc(C(C)(C)C)n3)CC2)n1C.Cl` [Example 1, 2-tert-Butyl-4-{4-[3-(4-methyl-5-methyl-4H-[1,2,4]triazol-3-ylsulfanyl)-propyl]-piperazin-1-yl}-6-tert-butyl-pyrimidine hydrochloride], in series [2], the affinity corresponds to a Ki of 1.1 nM and the “Selectivity [Ki(D2)/Ki(D3)]” value was determined as 160. Besides, the Ki (in general, a dissociation constant, usually derived from enzyme kinetics or from competition with a known ligand) in series [3] was 176 nM. For the same molecule, in series [1], the Brain level was 559 ng/g.

Turning to `Cl.Cn1cnnc1SCCCN1CCN(c2cc(C(C)(C)C)nc(C(C)(C)C)n2)CC1` [Example 2, 2-tert-Butyl-4-{4-[3-(4-methyl-4H-[1,2,4]triazol-3-ylsulfanyl)-propyl]-piperazin-1-yl}-6-tert-butyl-pyrimidine hydrochloride], the Ki in series [2] was determined as 1.7 nM; in series [3] it was 127 nM. In series [2], the “Selectivity [Ki(D2)/Ki(D3)]” value amounted to 75. In series [1], this molecule displayed a Brain level of 1835 ng/g.

For the molecule `CCCc1cc(N2CCN(CCCSc3nncn3C)CC2)nc(C(C)(C)C)n1.O=C(O)/C=C/C(=O)O` [Example 3, 2-tert-Butyl-4-{4-[3-(4-methyl-4H-[1,2,4]triazol-3-ylsulfanyl)-propyl]-piperazin-1-yl}-6-propyl-pyrimidine fumarate], in series [2], the Ki amounted to 3.3 nM and the “Selectivity [Ki(D2)/Ki(D3)]” value is given as 125. Also, the Ki in series [3] is 412 nM. In series [1], the Brain level was found to be 1000 ng/g.

On to `CCCc1cc(N2CCN(CCCSc3nnc(C)n3C)CC2)nc(C(C)(C)C)n1.Cl` [Example 4, 2-tert-Butyl-4-{4-[3-(4-methyl-5-methyl-4H-[1,2,4]triazol-3-ylsulfanyl)-propyl]-piperazin-1-yl}-6-propyl-pyrimidine hydrochloride], for which the Ki in series [2] is 2.6 nM; in series [3], 216 nM. In addition, in series [2], the “Selectivity [Ki(D2)/Ki(D3)]” value is on record as 83. This molecule also showed a Brain level in series [1] of 483 ng/g.

With `Cc1nnc(SCCCN2CCN(c3cc(C(F)(F)F)nc(C(C)(C)C)n3)CC2)n1C.Cl` [Example 5, 2-tert-Butyl-4-{4-[3-(4-methyl-5-methyl-4H-[1,2,4]triazol-3-ylsulfanyl)-propyl]-piperazin-1-yl}-6-trifluoromethyl-pyrimidine hydrochloride], in series [2], affinity was put at a Ki of 3.7 nM and the “Selectivity [Ki(D2)/Ki(D3)]” value amounted to 84. Also, in series [3], the Ki was determined as 311 nM. In series [1], this molecule gave a Brain level of 904 ng/g.

`Cl.Cn1cnnc1SCCCN1CCN(c2cc(C(F)(F)F)nc(C(C)(C)C)n2)CC1` [Example 6, 2-tert-Butyl-4-{4-[3-(4-methyl-4H-[1,2,4]triazol-3-ylsulfanyl)-propyl]-piperazin-1-yl}-6-trifluoromethyl-pyrimidine hydrochloride]: in series [2], the Ki is 3.5 nM and the “Selectivity [Ki(D2)/Ki(D3)]” value is given as 134. The Ki in series [3] is 469 nM. Besides, in series [1], the Brain level is given as 2384 ng/g.

Take `Cl.Cn1cnnc1SCCCN1CCN(c2cc(C(F)F)nc(C(C)(C)C)n2)CC1` [Example 7, 2-tert-Butyl-4-{4-[3-(4-methyl-4H-[1,2,4]triazol-3-ylsulfanyl)-propyl]-piperazin-1-yl}-6-difluoromethyl-pyrimidine hydrochloride]: in series [2], the Ki is 2.9 nM and the “Selectivity [Ki(D2)/Ki(D3)]” value turned out to be 146. Also, in series [3], the Ki came out at 418 nM. In addition, the Brain level in series [1] worked out at 1430 ng/g.

Regarding `Cc1nnc(SCCCN2CCN(c3cc(C(F)F)nc(C(C)(C)C)n3)CC2)n1C.Cl` [Example 8, 2-tert-Butyl-4-{4-[3-(4-methyl-5-methyl-4H-[1,2,4]triazol-3-ylsulfanyl)-propyl]-piperazin-1-yl}-6-difluoromethyl-pyrimidine hydrochloride], the Ki in series [2] is 1.8 nM; in series [3], 401 nM. Besides, the “Selectivity [Ki(D2)/Ki(D3)]” value in series [2] came to 224.
